Data set [1] can be described thus: Chemical stability in HD-MB03 cell culture media. Conditions: for t1/2 HD-MB03 cell media: cell media pH 7.7; for half-life: HD-MB03 cell culture media, pH 7.7. The format is physicochemical.
The nature of data set [2]: Metabolic stability in human liver microsomes. The format is in vitro ADME. On the technique in general: Liver microsomes are a subcellular fraction often used to study metabolism.
In another data set the test system is HD-MB03 cells. Kind of data set: HD-MB03 cell viability. The format is cell-based, human. To be noted: read-out: HD-MB03 IC50.
Data set [3] is described as follows: Metabolic stability in mouse liver microsomes. In kind it is in vitro ADME.
Data set [4] in a line: Stability in phosphate-buffered saline. In kind it is physicochemical.
A short description of the next data set: Aqueous solubility. The format is physicochemical. To be noted: for solubility: aqueous medium (not further specified).
A further data set concerns MV4–11 cells. Kind of data set: MV4–11 cell viability. The format is cell-based, human. Conditions: read-out: MV4–11 IC50; 3 days incubation, CellTiter-Glo.
Data set [5] can be described thus: Chemical stability in MV4–11 cell culture media. Conditions: for t1/2 MV4–11 cell media: pH 7.4, LCMS over 24 hours; for half-life: MV4-11 cell culture media, pH 7.4.
In data set [6] the test system is CaCo2 human colon adenocarcinoma cell line. Nature of the data set: Caco-2 cell permeability. In kind it is in vitro ADME. Background: Caco-2 cells form a polarised layer with tight junctions and transporters.
The next data set can be described thus: Plasma stability. In kind it is in vitro ADME.
For another data set, the target named is BRD2 (Homo sapiens, UniProt P25440). Kind of data set: BRD2 protein degradation in MV4–11 cells. In kind it is cell-based. To be noted: 100 nM, 4-hour incubation.
Sequence of BRD2 (P25440 whole entry): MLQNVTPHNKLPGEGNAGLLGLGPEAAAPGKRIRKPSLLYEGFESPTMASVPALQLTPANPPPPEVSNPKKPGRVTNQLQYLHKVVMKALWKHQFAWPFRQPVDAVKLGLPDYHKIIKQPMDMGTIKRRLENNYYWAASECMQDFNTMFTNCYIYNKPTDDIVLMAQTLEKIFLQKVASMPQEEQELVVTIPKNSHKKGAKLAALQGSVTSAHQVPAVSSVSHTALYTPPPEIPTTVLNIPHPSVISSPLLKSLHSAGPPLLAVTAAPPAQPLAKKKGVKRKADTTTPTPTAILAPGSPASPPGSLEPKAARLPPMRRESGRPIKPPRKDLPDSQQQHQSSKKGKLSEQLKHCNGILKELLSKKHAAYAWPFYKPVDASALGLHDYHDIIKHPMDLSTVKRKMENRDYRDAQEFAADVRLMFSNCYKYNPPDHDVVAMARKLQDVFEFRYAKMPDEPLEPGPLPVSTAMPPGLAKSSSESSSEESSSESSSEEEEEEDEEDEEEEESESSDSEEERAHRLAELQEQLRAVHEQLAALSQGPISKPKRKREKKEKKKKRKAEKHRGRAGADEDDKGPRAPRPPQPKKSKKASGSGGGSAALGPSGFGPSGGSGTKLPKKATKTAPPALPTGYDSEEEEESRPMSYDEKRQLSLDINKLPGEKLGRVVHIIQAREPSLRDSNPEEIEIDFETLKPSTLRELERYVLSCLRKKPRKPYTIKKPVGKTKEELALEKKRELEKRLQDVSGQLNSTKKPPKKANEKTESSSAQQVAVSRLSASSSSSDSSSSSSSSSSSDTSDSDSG
Another data set deals with IKZF1 and CK1α. Nature of the data set: Degradation of classical IMiD neosubstrates. In kind it is cell-based.
The nature of data set [7]: Chiral stability in cell media. In kind it is physicochemical. Conditions: 24 hours, 37°C.
A further data set deals with CRBN (Homo sapiens, UniProt Q96SW2). Nature of the data set: CRBN fluorescence polarization assay. The format is binding. To be noted: for IC50: read-out: CRBN IC50, fluorescence polarization, Cy5-conjugated lenalidomide probe; for LE (ligand efficiency): from CRBN affinity. A general note: In fluorescence polarisation assays a small probe gives low polarisation when free and higher when bound to something large.
Sequence of CRBN (Q96SW2 whole entry, species assumed): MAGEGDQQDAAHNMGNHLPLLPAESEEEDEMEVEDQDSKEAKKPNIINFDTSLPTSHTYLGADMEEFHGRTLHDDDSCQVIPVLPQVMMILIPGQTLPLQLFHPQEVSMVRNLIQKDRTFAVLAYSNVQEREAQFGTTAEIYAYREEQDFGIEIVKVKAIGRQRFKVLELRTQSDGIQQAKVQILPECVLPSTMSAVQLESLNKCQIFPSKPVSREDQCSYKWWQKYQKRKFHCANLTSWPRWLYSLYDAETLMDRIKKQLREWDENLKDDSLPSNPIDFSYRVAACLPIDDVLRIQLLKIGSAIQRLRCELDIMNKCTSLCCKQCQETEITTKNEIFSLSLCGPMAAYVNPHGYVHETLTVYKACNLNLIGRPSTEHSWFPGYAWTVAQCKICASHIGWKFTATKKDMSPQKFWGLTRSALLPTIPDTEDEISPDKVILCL

A short description of another data set: Caco-2 cell permeability. In kind it is in vitro ADME, human. Conditions: human, Caco-2.
The conditions of data set [8]: cited from earlier work.
Setting [9] is: 3 days incubation, CellTiter-Glo.

Results on 10 compounds are retold here after publication PMC8648984 (Angewandte Chemie (International ed. in English), 2021).

≈ marks a conversion by molar mass, not a printed value. Where “and” joins values, the source holds several entries; their conditions need not be identical. Equal values may be shown once. Read-outs that look alike come from different tables or passages of the source. Bounds are passed on as bounds.

In the case of `O=C1CCC(c2ccccc2)C(=O)N1` (centres unmarked) [2a, phenyl glutarimide], the “t1/2 HD-MB03 cell media” value in data set [1] turned out to be 20.8 ± 0.8 h. In addition, the “t1/2 hLM” value in [2] (liver microsomes) is reported as above 24 h. The IC50 with HD-MB03 cells (setting [9]) and in the data set with MV4–11 cells was above 7000 nM throughout. Also, in data set [3] (liver microsomes), the “t1/2 mLM” value is given as above 24 h. Further, the “t1/2 PBS” value in data set [4] is reported as above 48 h. Also, in “Aqueous solubility”, the “Sol. (aqueous solubility)” value came to 76.2 ± 0.1 µM. Also, the “t1/2 MV4–11 cell media” value in data set [5] (37°C) is above 24 h. For the same compound, in [6], the “CaCo2 Papp” value came out at 21.55 ± 6.54 ×10⁻⁶ cm/s.
In the case of `Cc1sc2c(c1C)C(c1ccc(Cl)cc1)=N[C@@H](CC(=O)NCCCCNC(=O)COc1cccc3c1C(=O)N(C1CCC(=O)NC1=O)C3=O)c1nnc(C)n1-2` (some centres unmarked) [4a], in [1], the “t1/2 HD-MB03 cell media” value came to 2.1 ± 0.3 h. For the same compound, the figures for the IC50 in the data set with HD-MB03 cells (setting [9]), in the data set on HD-MB03 cells (7 days incubation) and with MV4–11 cells were 1240 nM, above 4000 nM and 6.1 ± 1.56 nM, respectively. In addition, the “t1/2 mLM” value in data set [3] (microsomes) was 0.13 ± 0.01 h. In “Plasma stability”, the “plasma stability t1/2” value was 3.27 ± 0.25 h. Besides, the “t1/2 PBS” value in data set [4] worked out at 12.3 ± 0.6 h. In addition, the “depletion of BRD2 protein” value at BRD2 is above 90%. For the same compound, the “Sol. (aqueous solubility)” value in “Aqueous solubility” turned out to be 53.5 ± 0.3 µM. Further, the “t1/2 MV4–11 cell media” value in [5] (37°C) was determined as 4.2 ± 0.8 h. In addition, the “CaCo2 Papp” value in [6] was 1.16 ± 0.47 ×10⁻⁶ cm/s. The “degradation of IMiD neosubstrates IKZF1 and CK1α” value in the data set on IKZF1 and CK1α is reported as “Neither of the two PROTACs degraded classical IMiD neosubstrates”.
Consider `COc1ccc([C@@H]2CCC(=O)NC2=O)cc1` [(S)-2b], for which the chiral inversion in data set [7] (HD-MB03 cell media) stood at 24%; in data set [7] (MV4–11 cell media) it was 13%. For the same compound, at CRBN, the IC50 was above 25000 nM.
Regarding `Nc1cccc2c1C(=O)N(C1CCC(=O)NC1=O)C2=O` (centres unmarked) [1c, pomalidomide], the half-life is 5.4 ± 0.7 h in [1]; above 24 h in data set [2] (liver microsomes); 7.8 ± 0.69 h in data set [3] (liver microsomes); 32.5 ± 1 h in [4]; 12.2 ± 0.5 h in [5]. The solubility in “Aqueous solubility” came out at 84.6 ± 2.3 µM (≈ 23.1 µg/mL). The apparent permeability coefficient (Papp) in the data set “Caco-2 cell permeability” came to 36 ± 1.39 ×10⁻⁶ cm/s.
Regarding `Cc1sc2c(c1C)C(c1ccc(Cl)cc1)=N[C@@H](CC(=O)OC(C)(C)C)c1nnc(C)n1-2` [JQ1], the values for the IC50 with HD-MB03 cells (setting [9]) and in the data set on MV4–11 cells were 265 ± 62.6 nM and 83 ± 10.3 nM, respectively.
For the compound `COc1ccc(C2CCC(=O)NC2=O)cc1` (centres unmarked) [2b], the “t1/2 HD-MB03 cell media” value in data set [1] is 19.7 ± 0.1 h. Also, the “t1/2 hLM” value in data set [2] (microsomes) was above 24 h. For the same compound, in data set [4], the “t1/2 PBS” value is above 48 h. Moreover, in the data set “Aqueous solubility”, the “Sol. (aqueous solubility)” value was determined as 89.0 ± 1.8 µM. Besides, the “t1/2 MV4–11 cell media” value in data set [5] (37°C) is reported as above 24 h. In data set [6], the “CaCo2 Papp” value was found to be 81.8 ± 25.14 ×10⁻⁶ cm/s. Also, at CRBN, the “LE (ligand efficiency)” value amounted to 0.48; the IC50 is 3150 nM and 3160 nM.
As to `Nc1cccc2c1CN(C1CCC(=O)NC1=O)C2=O` (centres unmarked) [1b, lenalidomide], the half-life in [1] is 7.6 ± 0.6 h; in data set [2] (liver microsomes) it was above 24 h; in data set [3] (liver microsomes), above 24 h; in [4] it was 33.6 ± 2.5 h; in data set [5], 11.7 h. The compound also showed a solubility in the data set “Aqueous solubility” of 111 ± 6.2 µM (≈ 28.7 µg/mL). This compound also came in with an apparent permeability (Papp) in “Caco-2 cell permeability” of 4 ± 1.02 ×10⁻⁶ cm/s.
Take `O=C1CCC(N2C(=O)c3ccccc3C2=O)C(=O)N1` (centres unmarked) [1a, thalidomide]: the half-life was 1.8 ± 0.1 h in data set [1]; 4.55 ± 0.61 h in [2] (liver microsomes); 3.99 ± 0.01 h in data set [3] (liver microsomes); 5.4 ± 0.2 h in data set [4]; 3.3 ± 0.4 h in data set [5]. The half-life to hydrolysis in data set [8] (pH 7) was 11 h; in data set [8] (pH 7.4) it was 5 h; in data set [8] (pH 8), 1.25 h. The compound also came in with a percentage remaining in [5] (MV4–11 cell media, after 6 hours, 37°C) of 20%. For the same compound, the level remaining entry in data set [5] (MV4–11 cell media, at 24 hours, 37°C) is “below limits of detection”. In the data set “Caco-2 cell permeability”, this compound showed an apparent permeability (Papp) of 34.9 ± 1.46 ×10⁻⁶ cm/s.
As to `COc1ccc([C@H]2CCC(=O)NC2=O)cc1` [(R)-2b], the chiral inversion in [7] (HD-MB03 cell media) is recorded as 21%; in [7] (MV4–11 cell media), 10%. Further, on CRBN, the IC50 was found to be 1410 nM.
Take `Nc1ccc(C2CCC(=O)NC2=O)cc1` (centres unmarked) [2c]: the “t1/2 HD-MB03 cell media” value in data set [1] stood at 16.4 ± 0.3 h. Moreover, the “t1/2 hLM” value in data set [2] (microsomes) was determined as 15.66 ± 4.78 h. The “t1/2 mLM” value in [3] (microsomes) worked out at 23.19 ± 1.63 h. In addition, the “t1/2 PBS” value in data set [4] is above 48 h. In addition, the “Sol. (aqueous solubility)” value in “Aqueous solubility” is 148.5 ± 4.7 µM. In [5] (37°C), the “t1/2 MV4–11 cell media” value was above 24 h. Besides, in data set [6], the “CaCo2 Papp” value came out at 15.72 ± 0.94 ×10⁻⁶ cm/s. At CRBN, the “LE (ligand efficiency)” value was found to be 0.64 and the IC50 turned out to be 123 ± 66 nM.

What is called IC50 is the concentration that inhibits the measured activity by half. By half-life is commonly meant the time in which the quantity being followed falls by half. A low value points to fast loss. The solubility is the concentration that dissolves in the medium under given conditions. Low values mean a poorly soluble substance, high ones a readily soluble substance. A word on the Papp: it is the rate of passage across a membrane or cell layer, normalised by area and donor concentration. Read a low Papp as slow passage.
